Where two headings read alike, the source gives them in different places.
Assays:
[1] = test system: hepatocyte cells of ICR mice; assay: Comet assay (DNA damage), hepatocyte cells; format: in vivo; settings: EMS 577.6 mg/kg; for Liver Olive Tail Moment / Liver Tail DNA%: AA analogues 20.0 mg/kg, three consecutive days, 5 animals/group, 100 cells; for DNA damage in hepatocyte cells (comet shape): AA analogues 20 mg/kg, three days
Description: (§1) ICR mice were separated into seven groups (n = 5 for each group) and administrated with saline, EMS (577.6 mg/kg), AA I (20 mg/kg), AA II (20 mg/kg), AA IIIa (20 mg/kg), AA IVa (20 mg/kg), or AL I (20 mg/kg) for three consecutive days, respectively. After anesthetization and perfusion, renal and liver tissues were obtained. Comet analysis was performed 2–6 h after the last […] and the processes were according to Günter Speit ([Speit and Rothfuss, 2012]). The Comet Assay software project (CASP) (V1.2.3) was used to analyze the fraction of tail DNA and the Olive Tail Moment. A total of one hundred cells from kidney or liver tissues of each animal were analyzed. The mean, standard deviation (SD) of tail DNA%, and the median of olive tail moment were calculated. Results were analyzed using SPSS 17.0 by one-way analysis of variance (ANOVA) followed by the least significance difference (LSD) test. The significant differences between the groups were tested and defined by p-value < 0.05.
(§2) Mice (n=35) were randomly divided into seven groups, with 5 mice in each group. Then they were administered with normal saline (NS), ethyl methanesulfonate (EMS) (577.6 mg/kg), and aristolochic acid analogues (20.0 mg/kg) for three days, respectively. After the final administration, mice were perfused and euthanized to obtain the renal and liver tissues.
(§3) The removed renal and liver tissues were minced into pieces and dispersed with 10 mL DMEM high-sugar culture medium. The mixture was filtered through a 200-mesh sieve and centrifuged at 800 rpm for 5 min. The supernatant was discarded and the cells were resuspended and centrifuged again. Then the cells were cultured in DMEM containing 10% FBS.
(§4) 25 μL single-cell suspension (5000 cells) with 75 μL of 0.7% low melting point agarose gel were mixed and 100 μL of the mixture was dropped on the bottom layer of agarose gel. The prepared glass slides were stored in the refrigerator at 4℃ for 4 min, and then dipped into the alkaline cell lysates for 2 h at 4℃. Slides were removed and rinsed with PBS buffer for 3 times.
(§5) The alkaline electrophoresis buffer (pH 13.0) precooled at 4℃ was put into the electrophoresis tank. The tank was covered to avoid light and remained static at 4℃ for 20 min. The voltage was set at 0.8 V/cm, and the current was 300 mA during the electrophoreses.
(§6) After 20 min, the slides were removed and the excess salt was washed away. The slides were washed by 0.4 mol/L precooled Tris-HCl buffer for 5 min and then dehydrated by ethanol for 15 min. Then the slides were stained with 30 μL PI staining solution (2 μg/mL) in the dark for 15 s, and washed in water several times.
(§7) A fluorescence microscope was used for visualization of DNA damage. A total of 100 randomly selected cells from kidney or liver tissues were analyzed. Parameters such as tail DNA percentage and Olive Tail Moment were calculated by the Comet Assay Software Project (CASP, V1.2.3).

renal cells of ICR mice = assay: Comet assay (DNA damage), renal cells; format: in vivo; settings: EMS 577.6 mg/kg; for Kidney Olive Tail Moment / Kidney Tail DNA%: AA analogues 20.0 mg/kg, three consecutive days, 5 animals/group, 100 cells; for DNA damage in renal cells (comet shape): AA analogues 20 mg/kg, three days
Description: as §1, §2, §3, §4, §5, §6, §7

HK-2 cells = assay: cells; format: cell-based, human; settings: for Cell viability: HK-2, 1,000 μM, 24 or 48 h; for IC50: Homo sapiens
Description: Cytotoxicity analysis was determined using the Cell Counting kit 8 (CCK8) (Bioss, China). HK-2 was cultured in DMEM/F12 (containing 10% fetal bovine serum, 100 U/ml penicillin, and 100 μg/ml streptomycin; Gibco, Invitrogen) at 37°C in 5% carbon dioxide incubator. The cells were maintained at 80% confluency and the medium was replaced every 3 days for routine cultivation. HK-2 cells (8,000 cells/well) were seeded in 96-well plates overnight. The cells were then treated with analogues of AA for 24 or 48 h at different concentrations (6.8, 27.0, 54.0, 108.0, 216.0, and 432.0 μM for AA I; 12.5, 25.0, 100.0, 200.0, 400.0, and 800.0 μM for AA II; 15.6, 62.5, 125.0, 250.0, 500.0, and 1000.0 μM for AA IIIa; 15.6, 31.3, 62.5, 125.0, 500.0, and 1,000.0 μM for AA IVa; 8.0, 16.0, 32.0, 64.0, 128.0, and 256.0 μM for AL I). Subsequently, the cells were incubated with 10% CCK8 solution for another 2 h. […] The absorbance (OD) of each well was measured with a spectrophotometer (Spark; Tecan, Switzerland) at 450 nm and the IC50 values were obtained by fitting the curve through nonlinear regression with GraphPad Prism 7.0 (GraphPad Software, CA, United States).

ICR mice = assay: In vivo acute toxicity, single oral gavage dose, 14 days; settings: for Serum AST, ALT, ALP, TBIL, TBA, CREA, BUN vs control group: single oral dose, day 14, AA I at 20 and 40 mg/kg; for Histopathology of liver tissues: AA I 20 and 40 mg/kg
Description: The animal experiments were approved by the Research Ethics Committee of the Institute of Chinese Materia Medica, China Academy of Chinese Medical Sciences (ICMM, CACMS). The experiment was carried out according to ethical guidelines and regulations for the use of laboratory animals. A total of 160 ICR mice were randomly divided into 16 groups, each comprising 10 mice (5 males and 5 females). The drugs were administered in a single dose by oral gavage and the dose volume was 0.2 ml/10 g. The control group was treated with 0.5% CMC-Na. Other groups received AA I, AA II, AA IIIa, AA IVa, or AL I, at concentrations of 10, 20, and 40 mg/kg, respectively. Animal weights were recorded every two days. The animals were fasted overnight before experiments and sacrificed on day 14. Blood samples were collected and centrifuged for 15 min at 3,500×g. AST, ALT, ALP, CREA, BUN, TBA, and TBIL levels in plasma were examined. SPSS 17.0 (IBM Corp., United States) was used for the statistical and significance analyses. The renal and liver tissues were embedded and stained with H&E. Histological images were obtained through Olympus BX63 (Olympus Corporation, Japan) at a magnification of ×200.

[2] = 10, 20, 40 mg/kg single oral dose, 14 days
[3] = 10, 20, 40 mg/kg single oral dose, male and female mice
[4] = 10, 20 mg/kg single oral dose, 14 days

Row | Structure (SMILES) | Liver Olive Tail Moment [1] | Liver Tail DNA% [1] | DNA damage in hepatocyte cells (comet shape) [1] | Kidney Olive Tail Moment (renal cells of ICR mice) | Kidney Tail DNA% (renal cells of ICR mice) | DNA damage in renal cells (comet shape) (renal cells of ICR mice) | Cell viability (HK-2 cells) | Nephrotoxicity or hepatotoxicity (ICR mice; 40 mg/kg) | Death (ICR mice; [2]) | Body weight change vs control group (ICR mice; [3]) | Serum AST, ALT, ALP, TBIL, TBA, CREA, BUN vs control group (ICR mice) | IC50 (HK-2 cells; HK-2, 24 h, read-out: IC50) | IC50 (HK-2 cells; HK-2, 48 h, read-out: IC50) | Death (ICR mice; [4]) | Histopathology of liver tissues (ICR mice; H&E) | also measured
1 | COc1cc(O)cc2c1cc([N+](=O)[O-])c1c(C(=O)O)cc3c(c12)OCO3 [AA IVa, aristolochic acid IVa] | 0.81±0.14 μm | 2.98±0.22% | No DNA damage | 0.57±0.22 μm | 2.80±0.99% | No DNA damage | ≥ 50 % of control | No distinct nephrotoxicity or hepatotoxicity | no death | no distinct changes in body weight | no significant difference |  |  |  |  | Body weight change (ICR mice; 40 mg/kg, female mice, day 5, returned on day 7): drastic weight loss
2 | CCOS(C)(=O)=O [EMS, ethyl methanesulfonate, reference compound] | 33.60±6.11 μm | 55.18±6.23 % | significant comet tailing | 23.01±4.09 μm | 40.97±7.55 % | significant comet tailing |  |  |  |  |  |  |  |  |  | 
3 | O=C(O)c1cc2c(c3c1c([N+](=O)[O-])cc1ccccc13)OCO2 [AA II, aristolochic acid II] | 0.89±0.22 μm | 3.37±0.42% | No DNA damage | 0.78±0.30 μm | 3.08±0.25% | No DNA damage |  | No distinct nephrotoxicity or hepatotoxicity |  |  | no significant difference | > 800 µM | 306 µM | no death |  | Mice died (ICR mice; 40 mg/kg single oral dose, n = 10, death on day 8): 10%; Body weight change (ICR mice; 40 mg/kg, male and female mice, first 10 days): Slight weight loss
4 | COc1cccc2c1cc([N+](=O)[O-])c1c(C(=O)O)cc3c(c12)OCO3 [AA I, aristolochic acid I] | 0.88±0.14 μm | 2.92±0.54% | no DNA damage | 7.45 ± 1.94 μm | 15.39 ± 1.75% | evident comet shape |  |  |  | remarkable reduction of body weight | different levels of changes in serum levels of TBIL, ALP, BUN, and CREA |  |  | no death | no corresponding pathological changes | IC50 (HK-2 cells; HK-2, 24 h): 197 µM; IC50 (HK-2 cells; HK-2, 48 h): 76.7 µM; Survival rate (ICR mice; 40 mg/kg single oral dose, 14 days, n = 10, deaths on days 4, 5 and 6): 30%; Histopathology of renal tissues (ICR mice; 40 mg/kg, H&E): Significant lesions
5 | COc1cccc2c1cc1c3c(cc4c(c32)OCO4)C(=O)N1 [AL I, aristolactam I] | 0.74±0.29 μm | 3.26±0.52% | No DNA damage | 0.66±0.21 μm | 3.12±0.33% | No DNA damage |  | No distinct nephrotoxicity or hepatotoxicity | no death | no distinct changes in body weight | no significant difference | > 256 µM | 37.1 µM |  | No pathological changes | Serum AST, ALT, ALP activity (ICR mice; 10 mg/kg): decreased AST, ALT, and ALP activity
6 | O=C(O)c1cc2c(c3c1c([N+](=O)[O-])cc1ccc(O)cc13)OCO2 [AA IIIa, aristolochic acid IIIa] | 0.92±0.20 μm | 3.09±0.47% | No DNA damage | 0.61±0.16 μm | 2.60±0.69% | No DNA damage | ≥ 50 % of control | No distinct nephrotoxicity or hepatotoxicity | no death | no distinct changes in body weight | no significant difference |  |  |  |  | 

Reference: PMC8662950, “Quantitative Determination and Toxicity Evaluation of Aristolochic Acid Analogues in Asarum heterotropoides F. Schmidt (Xixin) and Traditional Chinese Patent Medicines” (Frontiers in Pharmacology, 2021)
